Source: patent US12281149B2, “Modulators of G-protein coupled receptors” (priority 2021, dated 2025)
Read-outs that look alike come from different tables or passages of the source. *1 amine or outer side, *2 acyl side, *3 side chain or, on linkers, in order; H or OH if unused. Where a SMILES comes first, the peptide text is derived from it. Side-chain parts run from the residue outwards. [ ]: non-standard residue; d: D form. The star is where a group is joined. cPentCO(1-(4-ClPh)) = O=C(C1(c2ccc(Cl)cc2)CCCC1)*; C20 diacid = O=C(O)CCCCCCCCCCCCCCCCCCC(=O)*; Phenylacetyl(3-Cl) = O=C(Cc1cccc(Cl)c1)*; γGlu = O=C(O)[C@H](CCC(=O)[*:2])N[*:1]; X5 = O=C(C1(c2ccc(F)cc2F)CCCC1)*; X72 = CC(C)(C(=O)*)c1cccc(Cl)c1F; X33 = CCC(CC)(C(=O)*)c1ccccc1; AEEA = NCCOCCOCC(=O)O; Aib = CC(C)(N)C(=O)O; GABA = NCCCC(=O)O; βAla = NCCC(=O)O

Key:
Format in all cases: cell-based
[1] = target: T1, GLP-1 receptor (Homo sapiens, UniProt P43220); assay: PathHunter β-arrestin assay, GLP-1 receptor; set-up: host or cells: PathHunter CHO-K1 GLP1R β-Arrestin Cell Line
[2] = target: T1, GLP-1 receptor; assay: HitHunter cAMP assay, GLP-1 receptor; conditions: for Emax: read-out: Emax GLP-1R
[3] = target: T2, GIP receptor (Homo sapiens, UniProt P48546); assay: PathHunter β-arrestin assay, GIP receptor; set-up: host or cells: PathHunter CHO-K1 GIPR β-Arrestin Cell Line
T2 sequence (P48546 22-466): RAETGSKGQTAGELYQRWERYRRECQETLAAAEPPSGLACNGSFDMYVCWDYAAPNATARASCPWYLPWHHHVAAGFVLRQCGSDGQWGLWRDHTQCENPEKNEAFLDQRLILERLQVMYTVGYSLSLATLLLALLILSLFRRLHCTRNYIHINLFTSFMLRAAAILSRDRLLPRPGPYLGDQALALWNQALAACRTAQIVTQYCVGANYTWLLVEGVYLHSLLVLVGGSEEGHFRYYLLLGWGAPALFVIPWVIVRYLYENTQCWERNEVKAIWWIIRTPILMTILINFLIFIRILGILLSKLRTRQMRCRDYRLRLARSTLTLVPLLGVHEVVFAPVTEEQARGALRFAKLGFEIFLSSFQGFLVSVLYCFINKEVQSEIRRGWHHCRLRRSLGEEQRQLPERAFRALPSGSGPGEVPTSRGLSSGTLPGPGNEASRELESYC

[4] = target: T2, GIP receptor; assay: HitHunter cAMP assay, GIP receptor; conditions: for Emax: read-out: Emax GIP-1R
[5] = β-arrestin-2 recruitment, PathHunter CHO-K1 GLP1R β-Arrestin Cell Line, 90 min at 37° C., normalized to GLP-1, read-out: GLP-1R β Arrestin EC50
[6] = CHO cells stably expressing human GLP-1 receptor, cAMP accumulation, 30 min, read-out: EC50 GLP-1R
[7] = CHO cells, cAMP, normalized to maximum signal from GLP-1 (high) and DMSO (low)
[8] = β-arrestin-2 recruitment, PathHunter CHO-K1 GIPR β-Arrestin Cell Line, 90 min at 37° C., normalized to GIP, read-out: GIPR β Arrestin EC50
[9] = CHO cells stably expressing GIP receptor, cAMP accumulation, 30 min, read-out: EC50 GIP-1R
[10] = CHO cells, cAMP, normalized to maximum signal from GIP (high) and DMSO (low)

T1 sequence (P43220 24-463): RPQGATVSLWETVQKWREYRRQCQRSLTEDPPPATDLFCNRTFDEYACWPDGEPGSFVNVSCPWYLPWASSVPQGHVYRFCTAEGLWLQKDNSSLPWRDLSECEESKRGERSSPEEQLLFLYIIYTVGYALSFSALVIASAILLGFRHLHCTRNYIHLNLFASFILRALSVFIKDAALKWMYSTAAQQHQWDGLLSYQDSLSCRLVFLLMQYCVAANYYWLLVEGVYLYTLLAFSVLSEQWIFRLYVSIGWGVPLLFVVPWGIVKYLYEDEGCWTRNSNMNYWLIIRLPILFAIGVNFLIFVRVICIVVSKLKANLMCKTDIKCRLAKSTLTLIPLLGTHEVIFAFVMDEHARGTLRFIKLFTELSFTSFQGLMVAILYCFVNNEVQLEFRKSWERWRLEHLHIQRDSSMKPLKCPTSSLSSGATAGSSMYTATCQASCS

Row | Structure (SMILES) | EC50 [1, 5] | EC50 [2, 6] | Emax [2, 7] | EC50 [3, 8] | EC50 [4, 9] | Emax [4, 10] | EC50 [1] | EC50 [2] | Emax ([2]; CHO) | EC50 [3] | EC50 [4] | Emax ([4]; CHO)
1 | CC[C@H](C)[C@H](NC(=O)[C@H](CC(C)C)NC(=O)[C@H](Cc1c[nH]c2ccccc12)NC(=O)[C@H](CCC(N)=O)NC(=O)[C@@H](NC(=O)[C@H](Cc1ccccc1)NC(=O)[C@H](C)NC(=O)[C@H](CCCCNC(=O)COCCOCCNC(=O)COCCOCCNC(=O)CC[C@H](NC(=O)CCCCCCCCCCCCCCCCCCC(=O)O)C(=O)O)NC(=O)[C@H](CCC(N)=O)NC(=O)[C@H](C)NC(=O)[C@@H](NC(=O)[C@H](CCCCN)NC(=O)[C@H](CC(=O)O)NC(=O)[C@H](CC(C)C)NC(=O)C(C)(C)NC(=O)[C@@H](NC(=O)[C@H](CO)NC(=O)[C@H](Cc1ccc(O)cc1)NC(=O)[C@H](CC(=O)O)NC(=O)[C@H](CO)NC(=O)[C@@H](NC(=O)[C@H](Cc1ccccc1)NC(=O)[C@@H](NC(=O)CNC(=O)[C@H](CCC(=O)O)NC(=O)CCNC(=O)C1(c2ccc(Cl)cc2)CCCC1)[C@@H](C)O)[C@@H](C)O)[C@@H](C)CC)[C@@H](C)CC)C(C)C)C(=O)N[C@@H](C)C(=O)NCC(=O)NCC(=O)N1CCC[C@H]1C(=O)N[C@@H](CO)C(=O)N[C@@H](CO)C(=O)NCC(=O)N[C@@H](C)C(=O)N1CCC[C@H]1C(=O)N1CCC[C@H]1C(=O)N1CCC[C@H]1C(=O)N[C@@H](CO)C(N)=O [Compound 217] ({cPentCO(1-(4-ClPh))-βAla}-EGTFTSDYSI[Aib]LDKIAQK([AEEA-AEEA-γGlu-C20 diacid])AFVQWLIAGGPSSGAPPPS-NH2) | > 1000 nM | 0.1 to 1 nM | 101% | > 1000 nM | 0.1 to 1 nM | 108% | – | – | – | – | – | –
2 | CC[C@H](C)[C@H](NC(=O)[C@H](CC(C)C)NC(=O)[C@H](Cc1c[nH]c2ccccc12)NC(=O)[C@H](CCC(N)=O)NC(=O)[C@@H](NC(=O)[C@H](Cc1ccccc1)NC(=O)[C@H](C)NC(=O)[C@H](CCCCNC(=O)COCCOCCNC(=O)COCCOCCNC(=O)CC[C@H](NC(=O)CCCCCCCCCCCCCCCCCCC(=O)O)C(=O)O)NC(=O)[C@H](CCC(N)=O)NC(=O)[C@H](C)NC(=O)[C@@H](NC(=O)[C@H](CCCCN)NC(=O)[C@H](CC(=O)O)NC(=O)[C@H](CC(C)C)NC(=O)C(C)(C)NC(=O)[C@@H](NC(=O)[C@H](CO)NC(=O)[C@H](Cc1ccc(O)cc1)NC(=O)[C@H](CC(=O)O)NC(=O)[C@H](CO)NC(=O)[C@@H](NC(=O)[C@H](Cc1ccccc1)NC(=O)[C@@H](NC(=O)CNC(=O)[C@H](CCC(=O)O)NC(=O)CCNC(=O)C(CC)(CC)c1ccccc1)[C@@H](C)O)[C@@H](C)O)[C@@H](C)CC)[C@@H](C)CC)C(C)C)C(=O)N[C@@H](C)C(=O)NCC(=O)NCC(=O)N1CCC[C@H]1C(=O)N[C@@H](CO)C(=O)N[C@@H](CO)C(=O)NCC(=O)N[C@@H](C)C(=O)N1CCC[C@H]1C(=O)N1CCC[C@H]1C(=O)N1CCC[C@H]1C(=O)N[C@@H](CO)C(N)=O [Compound 218] ({X33-βAla}-EGTFTSDYSI[Aib]LDKIAQK([AEEA-AEEA-γGlu-C20 diacid])AFVQWLIAGGPSSGAPPPS-NH2) | > 1000 nM | 0.1 to 1 nM | 103% | < 1000 nM | 0.1 to 1 nM | 100% | – | – | – | – | – | –
3 | CC[C@H](C)[C@H](NC(=O)[C@H](CC(C)C)NC(=O)[C@H](Cc1c[nH]c2ccccc12)NC(=O)[C@H](CCC(N)=O)NC(=O)[C@@H](NC(=O)[C@H](Cc1ccccc1)NC(=O)[C@H](C)NC(=O)[C@H](CCCCNC(=O)COCCOCCNC(=O)COCCOCCNC(=O)CC[C@H](NC(=O)CCCCCCCCCCCCCCCCCCC(=O)O)C(=O)O)NC(=O)[C@H](CCC(N)=O)NC(=O)[C@H](C)NC(=O)[C@@H](NC(=O)[C@H](CCCCN)NC(=O)[C@H](CC(=O)O)NC(=O)[C@H](CC(C)C)NC(=O)C(C)(C)NC(=O)[C@@H](NC(=O)[C@H](CO)NC(=O)[C@H](Cc1ccc(O)cc1)NC(=O)[C@H](CC(=O)O)NC(=O)[C@H](CO)NC(=O)[C@@H](NC(=O)[C@H](Cc1ccccc1)NC(=O)[C@@H](NC(=O)CNC(=O)[C@H](CCC(=O)O)NC(=O)CCNC(=O)C(C)(C)c1cccc(Cl)c1F)[C@@H](C)O)[C@@H](C)O)[C@@H](C)CC)[C@@H](C)CC)C(C)C)C(=O)N[C@@H](C)C(=O)NCC(=O)NCC(=O)N1CCC[C@H]1C(=O)N[C@@H](CO)C(=O)N[C@@H](CO)C(=O)NCC(=O)N[C@@H](C)C(=O)N1CCC[C@H]1C(=O)N1CCC[C@H]1C(=O)N1CCC[C@H]1C(=O)N[C@@H](CO)C(N)=O [Compound 219] ({X72-βAla}-EGTFTSDYSI[Aib]LDKIAQK([AEEA-AEEA-γGlu-C20 diacid])AFVQWLIAGGPSSGAPPPS-NH2) | > 1000 nM | < 0.1 nM | 104% | < 1000 nM | 0.1 to 1 nM | 106% | – | – | – | – | – | –
4 | CC[C@H](C)[C@H](NC(=O)[C@H](CC(C)C)NC(=O)[C@H](Cc1c[nH]c2ccccc12)NC(=O)[C@H](CCC(N)=O)NC(=O)[C@@H](NC(=O)[C@H](Cc1ccccc1)NC(=O)[C@H](C)NC(=O)[C@H](CCCCNC(=O)COCCOCCNC(=O)COCCOCCNC(=O)CC[C@H](NC(=O)CCCCCCCCCCCCCCCCCCC(=O)O)C(=O)O)NC(=O)[C@H](CCC(N)=O)NC(=O)[C@H](C)NC(=O)[C@@H](NC(=O)[C@H](CCCCN)NC(=O)[C@H](CC(=O)O)NC(=O)[C@H](CC(C)C)NC(=O)C(C)(C)NC(=O)[C@@H](NC(=O)[C@H](CO)NC(=O)[C@H](Cc1ccc(O)cc1)NC(=O)[C@H](CC(=O)O)NC(=O)[C@H](CO)NC(=O)[C@@H](NC(=O)[C@H](Cc1ccccc1)NC(=O)[C@@H](NC(=O)CNC(=O)[C@H](CCC(=O)O)NC(=O)CCNC(=O)C1(c2ccc(F)cc2F)CCCC1)[C@@H](C)O)[C@@H](C)O)[C@@H](C)CC)[C@@H](C)CC)C(C)C)C(=O)N[C@@H](C)C(=O)NCC(=O)NCC(=O)N1CCC[C@H]1C(=O)N[C@@H](CO)C(=O)N[C@@H](CO)C(=O)NCC(=O)N[C@@H](C)C(=O)N1CCC[C@H]1C(=O)N1CCC[C@H]1C(=O)N1CCC[C@H]1C(=O)N[C@@H](CO)C(N)=O [Compound 220] ({X5-βAla}-EGTFTSDYSI[Aib]LDKIAQK([AEEA-AEEA-γGlu-C20 diacid])AFVQWLIAGGPSSGAPPPS-NH2) | > 1000 nM | 0.1 to 1 nM | 102% | < 1000 nM | 0.1 to 1 nM | 108% | – | – | – | – | – | –
5 | CC[C@H](C)[C@H](NC(=O)[C@H](CC(C)C)NC(=O)[C@H](Cc1c[nH]c2ccccc12)NC(=O)[C@H](CCC(N)=O)NC(=O)[C@@H](NC(=O)[C@H](Cc1ccccc1)NC(=O)[C@H](C)NC(=O)[C@H](CCCCNC(=O)COCCOCCNC(=O)COCCOCCNC(=O)CC[C@H](NC(=O)CCCCCCCCCCCCCCCCCCC(=O)O)C(=O)O)NC(=O)[C@H](CCC(N)=O)NC(=O)[C@H](C)NC(=O)[C@@H](NC(=O)[C@H](CCCCN)NC(=O)[C@H](CC(=O)O)NC(=O)[C@H](CC(C)C)NC(=O)C(C)(C)NC(=O)[C@@H](NC(=O)[C@H](CO)NC(=O)[C@H](Cc1ccc(O)cc1)NC(=O)[C@H](CC(=O)O)NC(=O)[C@H](CO)NC(=O)[C@@H](NC(=O)[C@H](Cc1ccccc1)NC(=O)[C@@H](NC(=O)CNC(=O)[C@H](CCC(=O)O)NC(=O)CCCNC(=O)CNC(=O)Cc1cccc(Cl)c1)[C@@H](C)O)[C@@H](C)O)[C@@H](C)CC)[C@@H](C)CC)C(C)C)C(=O)N[C@@H](C)C(=O)NCC(=O)NCC(=O)N1CCC[C@H]1C(=O)N[C@@H](CO)C(=O)N[C@@H](CO)C(=O)NCC(=O)N[C@@H](C)C(=O)N1CCC[C@H]1C(=O)N1CCC[C@H]1C(=O)N1CCC[C@H]1C(=O)N[C@@H](CO)C(N)=O [Compound 221] ({Phenylacetyl(3-Cl)}-G[GABA]EGTFTSDYSI[Aib]LDKIAQK([AEEA-AEEA-γGlu-C20 diacid])AFVQWLIAGGPSSGAPPPS-NH2) | – | – | – | – | – | – | > 1000 nM | 10 to 100 nM | 95% | > 1000 nM | 10 to 100 nM | 95%
